B1: IFN-α: type I interferon cytokine; commercial IFN-α is IFN-α1 (protein, UniProt P01562 24-189, looked up)
Interferon alpha-1/13: CDLPETHSLDNRRTLMLLAQMSRISPSSCLMDRHDFGFPQEEFDGNQFQKAPAISVLHELIQQIFNLFTTKDSSAAWDEDLLDKFCTELYQQLNDLEACVMQEERVGETPLMNADSILAVKKYFRRITLYLTEKKYSPCAWEVVRAEIMRSLSLSTNLQERLRRKE

Columns and labels:
[1] = test system: bovine viral diarrhea virus (BVDV) NADL strain; experiment: BVDV antiviral drug-drug combination assay (MTS, MacSynergy II); type: cell-based; conditions: in combination with IFN-α; MDBK cells with BVDV virus
Experimental: (§1) The substances were solubilized in DMSO. Pegylated interferon-alpha (IFN) was supplied by Southern Research Institute and dissolved in sterile dH2O.
(§2) Drug-drug interactions were assayed by testing both the antiviral and cytotoxic activities of a wide range of concentrations of combinations of the compounds and IFN. The bovine viral diarrhea virus (BVDV) NADL strain antiviral evaluation assay and drug-drug combination analysis was performed as described in Antimicro. Agents Chemother. 2003; 47: 2293-8. BVDV is frequently employed as a hepatitis C virus surrogate model in the study of antiviral agents (Antiviral Res. 2003; 60:1-15). Madin-Darby bovine kidney cells were trypsinized, pelleted, counted and resuspended at 1×10^4/well in tissue culture medium in 96-well flat bottom, tissue culture plates in volume of 100 μl per well. […] Five concentrations of substance were evaluated in combination with nine different concentrations IFN; antiviral efficacy and cellular toxicity were monitored by MTS staining at the experimental endpoint.
(§3) At assay termination, the assay plates were stained with the soluble tetrazolium-based dye MTS (CellTiter Reagent Promega) to determine cell viability and quantify compound toxicity. […]
(§4) Theoretical additive values are calculated from the dose response curves for each substance used individually. […]

[2] = test system: Madin-Darby bovine kidney cells; experiment: BVDV assay, combined cytotoxicity (MTS staining); type: cell-based; conditions: in combination with IFN-α; MDBK cells
Experimental: as §1, §2, §3, §4

HCV = conditions: cited from earlier work

Row | Molecule | combined antiviral activity (drug-drug interaction) [1] | combined cytotoxic activity (drug-drug interaction) [2] | sustained antiviral response, share of patients (HCV; IFN-α therapy in chronic HCV infected patients) | sustained response (HCV; combination therapy with ribavirin)
1 | O=C(c1ccccc1)c1ccc2nc(NC(=O)c3csc(C4CCN(c5ncnc6ccsc56)CC4)n3)[nH]c2c1 [Compound 273, 2-(1-Thieno[3,2-d]pyrimidin-4-yl-piperidin-4-yl)-thiazole-4-carboxylic acid (5-benzoyl-1H-benzoimidazol-2-yl)-amide] | highly synergistic behaviour | highly antagonistic behaviour |  | 
2 | B1 |  |  | 15-20% | 38-43%

Source: patent publication US20110052532A1, “Pharmaceutical composition comprising a cytokine” (priority 2007, published 2011)
